Patent US12630534B2 (TAKEDA PHARMACEUTICAL COMPANY LIMITED, priority 2020, dated 2026)

Target: T1, human GPR139 (Homo sapiens, UniProt Q6DWJ6)
T1 construct: expressed in transfected cells; host or cells: CHO-TREx (Life Technologies) cells, expression induced with doxycycline
T1 sequence (Q6DWJ6 1-353): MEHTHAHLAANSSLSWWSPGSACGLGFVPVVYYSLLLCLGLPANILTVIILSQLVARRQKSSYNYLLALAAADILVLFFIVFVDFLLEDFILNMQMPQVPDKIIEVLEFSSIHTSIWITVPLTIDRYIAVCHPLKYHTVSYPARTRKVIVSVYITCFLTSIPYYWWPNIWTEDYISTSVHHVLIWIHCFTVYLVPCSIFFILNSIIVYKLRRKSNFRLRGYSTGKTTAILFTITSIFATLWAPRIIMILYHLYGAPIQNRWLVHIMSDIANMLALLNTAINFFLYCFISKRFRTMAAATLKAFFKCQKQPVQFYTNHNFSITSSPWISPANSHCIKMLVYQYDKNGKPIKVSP
Assay: Inhibition rate of the amount of IP1 in GPR139-expressed CHO cells (inverse agonist assay, Test Example 2)
Type: cell-based
Conditions: relative value, inhibition rate of Example Compound 2 in Test Example 1 defined as 100%; for inhibition at 30 µM: CHO
Procedure, shortened: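 IP1 accumulation read by IP-One HTRF after 40 min compound exposure at 37° C in stimulation buffer, 2000 cells/well, GPR139 expression induced the day before with doxycycline. Results given as relative inhibition rate, normalised to a reference compound set at […].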

Structure (SMILES)	inhibition at 30 µM [%]	Inhibition Rate at 30 μM (30 µM) [%]
Cc1cn(-c2cc(OC3CCOCC3)cc(C(F)(F)F)c2F)c(=O)n1Cc1cnn(C(C)C)c1 [Example 119, 1-{2-fluoro-5-[(oxan-4-yl)oxy]-3-(trifluoromethyl)phenyl}-4-methyl-3-{[1-(propan-2-yl)-1H-pyrazol-4-yl]methyl}-1,3-dihydro-2H-imidazol-2-one]	101	–
CCn1cc(Cn2c(C)cn(-c3nc(N4CCOC(C)(C)C4)cc(C(F)(F)F)c3C)c2=O)cn1 [Example 120, 1-[6-(2,2-dimethylmorpholin-4-yl)-3-methyl-4-(trifluoromethyl)pyridin-2-yl]-3-[(1-ethyl-1H-pyrazol-4-yl)methyl]-4-methyl-1,3-dihydro-2H-imidazol-2-one]	102	–
CCn1cc(Cn2ccn(-c3cc(N(C)C4CCOCC4)cc(C(C)(C)F)c3F)c2=O)cn1 [Example 122, 1-[(1-ethyl-1H-pyrazol-4-yl)methyl]-3-{2-fluoro-3-(2-fluoropropan-2-yl)-5-[methyl(oxan-4-yl)amino]phenyl}-1,3-dihydro-2H-imidazol-2-one]	103	–
Cc1cn(Cc2cnn(C(C)C)c2)c(=O)n1-c1cc(C2CC2)cc(N2CCO[C@H](C)C2)n1 [Example 126, 3-{4-cyclopropyl-6-[(2R)-2-methylmorpholin-4-yl]pyridin-2-yl}-4-methyl-1-{[1-(propan-2-yl)-1H-pyrazol-4-yl]methyl}-1,3-dihydro-2H-imidazol-2-one]	100	–
CCn1cc(Cn2c(C(F)(F)F)cn(-c3nc(N4CCO[C@H](C)C4)cc(C(F)(F)F)c3F)c2=O)cn1 [Example 127, 3-[(1-Ethyl-1H-pyrazole-4-yl)methyl]-1-{3 fluoro-6-[(2R)-2-methylmorpholine-4-yl]-4-(trifluoromethyl)pyridine-2-yl}-4-(trifluoromethyl)-1,3-dihydro-2H-imidazole-2-one]	99	–
Cc1cn(Cc2cnn(C(C)C)c2)c(=O)n1-c1cc(C2CC2)cc(N2CCOC(C)(C)C2)n1 [Example 130, 3-[4-cyclopropyl-6-(2,2-dimethylmorpholin-4-yl)pyridin-2-yl]-4-methyl-1-{[1-(propan-2-yl)-1H-pyrazol-4-yl]methyl}-1,3-dihydro-2H-imidazol-2-one]	100	–
CCn1cc(Cn2cc(C)n(-c3nc(N4CCOC(C)(C)C4)cc(C(F)(F)F)n3)c2=O)cn1 [Example 134, 3-[4-(2,2-Dimethylmorpholine-4-yl)-6-(trifluoromethyl)pyrimidine-2-yl]-1-[(1-ethyl-H-pyrazole-4-yl)methyl]-4-methyl-1,3-dihydro-2H-imidazole-2-one]	98	–
Cc1cn(Cc2cnn(C(C)C)c2)c(=O)n1-c1nc(N2CCOC(C)(C)C2)cc(C(F)(F)F)n1 [Example 135, 3-[4-(2,2-dimethylmorpholin-4-yl)-6-(trifluoromethyl)pyrimidin-2-yl]-4-methyl-1-{[1-(propan-2-yl)-1H-pyrazol-4-yl]methyl}-1,3-dihydro-2H-imidazol-2-one]	102	–
CCn1cc(Cn2cc(C)n(-c3cc(Br)cc(N4CCOC(C)(C)C4)c3)c2=O)cn1 [Example 137, 3-[3-bromo-5-(2,2-dimethylmorpholin-4-yl)phenyl]-1-[(1-ethyl-1H-pyrazol-4-y)methyl]-4-methyl-1,3-dihydro-2H-imidazol-2-one]	98	–
CCc1nn(-c2cc(N3CCC(F)(F)CC3)cc(C(F)(F)F)c2F)c(=O)n1Cc1cnn(CC)c1 [Example 138, 2-[5-(4,4-difluoropiperidin-1-yl)-2-fluoro-3-(trifluoromethyl)phenyl]-5-ethyl-4-[(1-ethyl-1H-pyrazol-4-yl)methyl]-2,4-dihydro-3H-1,2,4-triazol-3-one]	100	–
CCn1cc(Cn2c(C)cn(-c3cc(N4CCO[C@H](C)C4)cc(Cl)c3F)c2=O)cn1 [Example 139, 1-{3-chloro-2-fluoro-5-[(2R)-2-methylmorpholin-4-yl]phenyl}-3-[(1-ethyl-1H-pyrazol-4-yl)methyl]-4-methyl-1,3-dihydro-2H-imidazol-2-one]	98	–
CCn1cc(Cn2c(C)cn(-c3cc(N4CCO[C@H](C)C4)cc(C4CC4)c3F)c2=O)cn1 [Example 140, 1-{3-cyclopropyl-2-fluoro-5-[(2R)-2-methylmorpholin-4-yl]phenyl}-3-[(1-ethyl-1H-pyrazol-4-yl)methyl]-4-methyl-1,3-dihydro-2H-imidazol-2-one]	98	–
Cc1nn(-c2cc(C(F)(F)F)cc(N3CCC(F)(F)CC3)n2)c(=O)n1Cc1cnn(C(C)C)c1 [Example 142, 2-[6-(4,4-difluoropiperidin-1-yl)-4-(trifluoromethyl)pyridin-2-yl]-5-methyl-4-{[1-(propan-2-yl)-1H-pyrazol-4-yl]methyl}-2,4-dihydro-3H-1,2,4-triazol-3-one]	100	–
CCn1cc(Cn2c(C(F)(F)F)cn(-c3cc(N4CCO[C@H](C)C4)cc(C4CC4(F)F)c3F)c2=O)cn1 (stereo partly drawn) [Example 143, 1-{3-(2,2-difluorocyclopropyl)-2-fluoro-5-[(2R)-2-methylmorpholin-4-yl]phenyl}-3-[(1-ethyl-1H-pyrazol-4-yl)methyl]-4-(trifluoromethyl)-1,3-dihydro-2H-imidazol-2-one]	101	–

Continued, values first:

inhibition at 30 µM [%]	Inhibition Rate at 30 μM (30 µM) [%]	Structure (SMILES)
101	–	CCn1cc(Cn2ccn(-c3nc(NCC4(F)CCC4)cc(C(F)(F)F)c3F)c2=O)cn1 [Example 121, 1-[(1-ethyl-1H-pyrazol-4-yl)methyl]-3-[3-fluoro-6-{[(1-fluorocyclobutyl)methyl]amino}-4-(trifluoromethyl)pyridin-2-yl]-1,3-dihydro-2H-imidazol-2-one]
102	–	CCn1cc(Cn2ccn(-c3nc(N4CCOC(F)(F)C4)cc(C(F)(F)F)c3F)c2=O)cn1 [Example 123, 1-[6-(2,2-difluoromorpholin-4-yl)-3-fluoro-4-(trifluoromethyl)pyridin-2-yl]-3-[(1-ethyl-1H-pyrazol-4-yl)methyl]-1,3-dihydro-2H-imidazol-2-one]
103	–	CCn1cc(Cn2cc(C)n(-c3nc(N4CCO[C@H](C)C4)cc(C(F)(F)F)n3)c2=O)cn1 [Example 124, 1-[(1-ethyl-1H-pyrazol-4-yl)methyl]-4-methyl-3-{4-[(2R)-2-methylmorpholin-4-yl]-6-(trifluoromethyl)pyrimidin-2-yl}-1,3-dihydro-2H-imidazol-2-one]
101	–	CCn1cc(Cn2cc(C)n(-c3cc(C(F)(F)F)cc(N4CCOC(C)(C)C4)n3)c2=O)cn1 [Example 125, 3-[6-(2,2-dimethylmorpholin-4-yl)-4-(trifluoromethyl)pyridin-2-yl]-1-[(1-ethyl-1H-pyrazol-4-yl)methyl]-4-methyl-1,3-dihydro-2H-imidazol-2-one]
101	–	Cc1cn(Cc2cnn(C(C)C)c2)c(=O)n1-c1cc(C(F)(F)F)cc(N(C)C2CCOCC2)n1 [Example 128, 4-methyl-3-{6-[methyl(oxan-4-yl)amino]-4-(trifluoromethyl)pyridin-2-yl}-1-{[1-(propan-2-yl)-1H-pyrazol-4-yl]methyl}-1,3-dihydro-2H-imidazol-2-one]
100	–	Cc1cn(-c2cc(C(F)(F)F)cc(N3CCO[C@H](C)C3)n2)c(=O)n1Cc1cnn(C(C)C)c1 [Example 129, 4-methyl-1-{6-[(2R)-2-methylmorpholin-4-yl]-4-(trifluoromethyl)pyridin-2-yl}-3-{[1-(propan-2-yl)-1H-pyrazol-4-yl]methyl}-1,3-dihydro-2H-imidazol-2-one]
96	–	CCn1cc(Cn2ccn(-c3cc(-c4ccc(F)cc4)cc(C4CC4(F)F)c3F)c2=O)cn1 (centres unmarked) [Example 131]
99	–	CC(C)n1cc(Cn2ccn(-c3nc(N4CCOC(C)(C)C4)cc(C(F)(F)F)c3F)c2=O)cn1 [Example 132, 1-[6-(2,2-dimethylmorpholin-4-yl)-3-fluoro-4-(trifluoromethyl)pyridin-2-yl]-3-{[1-(propan-2-yl)-1H-pyrazol-4-yl]methyl}-1,3-dihydro-2H-imidazol-2-one]
99	–	CC(C)n1cc(Cn2ccn(-c3nc(NCC4(F)CCC4)cc(C(F)(F)F)c3F)c2=O)cn1 [Example 133, 1-[3-fluoro-6-{[(1-fluorocyclobutyl)methyl]amino}-4-(trifluoromethyl)pyridin-2-yl]-3-{[1-(propan-2-yl)-1H-pyrazol-4-yl]methyl}-1,3-dihydro-2H-imidazol-2-one]
100	–	CCc1nn(-c2cc(N3CCOC(C)(C)C3)cc(C(F)(F)F)c2F)c(=O)n1Cc1cnn(CC)c1 [Example 136, 2-[5-(2,2-dimethylmorpholin-4-yl)-2-fluoro-3-(trifluoromethyl)phenyl]-5-ethyl-4-[(1-ethyl-1H-pyrazol-4-yl)methyl]-2,4-dihydro-3H-1,2,4-triazol-3-one]
101	–	CCn1cc(Cn2c(C)nn(-c3cc(C(F)(F)F)cc(N4CCC(F)(F)CC4)n3)c2=O)cn1 [Example 141]
–	101	CCn1cc(Cn2ccn(-c3cc(-c4ccc(F)cc4)cc(C4CC4(F)F)c3F)c2=O)cn1 (centres unmarked) [Example 144, 1-[5-(2,2-difluorocyclopropyl)-4,4′-difluoro[1,1′-biphenyl]-3-yl]-3-[(1-ethyl-1H-pyrazol-4-yl)methyl]-1,3-dihydro-2H-imidazol-2-one]
